Source: patent US20220273614A1, “INTRAVENOUS VITAMIN C THERAPY PROTOCOL FOR THE TREATMENT OF CANCER” (Riordan Clinic, priority 2019, published 2022)
“Also recorded” adds a separate entry of the source.

Assays:
[1] = Plasma ascorbate during continuous IVC infusion (Riordan Phase I trial); type: in vivo, human; conditions: continuous infusion 150-710 mg/kg/day, cancer patients
Procedure: (§1) The second trial of the treatment of cancer patients by continuous infusions was conducted by Dr. Riordan. In this Phase I clinical trial (hereafter referred to as the Riordan trial), patients were administered continuous infusions using an infusion pump [See for example Ref 1]. In the Riordan Clinic trial, patients were treated by continuous infusion, which was administered over much longer periods of time than bolus intermittent treatments. For most patients, the duration of the continuous infusion was at least 20 hours, as the duration of bolus infusion is from one hour to three hours, depending on the dosage.
(§2) The trial lasted eight weeks and involved terminal patients with poor prognosis. Twenty-four (24) subjects were given continuous IVC at doses between 150 and 710 mg/kg/day (10-50 grams per day). Most of the patients had colon cancer with liver and lung metastasis and three patients had pancreatic or liver cancer. All patients had several chemotherapy/radiation treatments before entering the study.
The most obvious effect of IVC therapy was to increase patient vitamin C levels. […] In fact, ten out of twenty-four subjects entered the trial with plasma ascorbate concentrations undetectable by the colorimetric ascorbate assay used at that time, with another four having ascorbate concentrations below the normal range (FIG. 1). IVC infusion increased plasma levels to 1 mM. […]

terminal cancer patients [2] = assay: Lymphocyte and neutrophil counts and neutrophil-to-lymphocyte ratio in cancer patients on continuous IVC (updated analysis of Riordan trial); type: in vivo, human
Procedure: as §1, §2
(§3) Recently, previously unpublished parameters from the clinical study were analyzed, including blood chemistry and blood count parameters that are reportedly related to patient prognosis and degree of inflammation [See for example Ref 2]. This included: absolute neutrophil and lymphocyte counts and the neutrophil-to-lymphocyte ratio; lactate dehydrogenase, an enzyme involved in tumor initiation, metastasis, and recurrence; creatinine, the depletion of which is associated with cachexia; and glucose, as hyperglycemia is common in cancer patients.

terminal cancer patients [3] = assay: Blood chemistry (lactate dehydrogenase, glucose) and survival in cancer patients on continuous IVC (updated analysis of Riordan trial); type: in vivo, human
Procedure: as §1, §2, §3

terminal cancer patients [4] = assay: Safety and adverse events of continuous IVC infusion (Riordan trial); type: in vivo, human
Procedure: as §1
as §2, with “cancer.” for “cancer. All patients had several chemotherapy/radiation treatments before entering the study.”

[5] = tested on: patients suffering from cancer; assay: Pulse-press intravenous vitamin C protocol in cancer patients (Example 3); type: in vivo, human
Procedure: Intravenous vitamin C therapy is given by intermittent, high dose infusion that involves administering high-dose vitamin C (15-100 grams) over a 1-2 hour window and repeated twice weekly (every 2-4 days). The intermittent frequency of high-dose administration is referred to as a PULSED approach or as a PULSE dose.
As an adjunct to high-dose intermittent vitamin C infusions, experiments described herein have led to the developments of a method for administering continuous low to mid doses of vitamin C infusion using an elastomeric pump (non-electric) infusion pump over an 8 to 48 hour window. This method of continuous infusion targets a therapeutic dose anywhere between 4 to 50 grams of vitamin C per infusion window and is referred to as a PRESS approach or a PRESS dose.
The intravenous vitamin C+(IVC+) protocol for the treatment of cancer, and other chronic conditions, described herein combines the pulse approach with a press protocol into a PULSE-PRESS approach whereby vitamin C infusions alternate between a high-dose rapid infusion with a low to mid dose continuous infusion.
This clinical application of the IVC+ Protocol is centered on a 2-day cycle of a rapid PULSE infusion immediately followed by a PRESS continuous infusion at a rate of […] of Vitamin C per hour. Over the two week period, each pulse dose of vitamin C is increased to a therapeutic dose as outlined in the original Riordan IVC Protocol [See for example. Ref 1]. Each week back to back pulse-press doses are given followed by a final pulse dose leading into a rest period. These cyclic rest periods are important wherein they provide recovery time necessary for the patient to assimilate the oxidative stress generated within the body.
The protocol has been used on about six subjects to ascertain safety, feasibility and usability of the pump and in coordinating the process with existing therapies. The types of cancer for these patients varied.

terminal cancer patients [6] = conditions: 10 g/day continuous IV infusion for 10 days, then oral 10-30 g/day; 100 terminal cancer patients; cited from earlier work
[7] = rate of increase of LDH before vs after treatment
[8] = a patient suffering from cancer

Compound: O=C1O[C@H]([C@@H](O)CO)C(O)=C1O [IVC, L-ascorbic acid]
- plasma ascorbate level reached during IVC infusion [1]: 1 mM
- median improvement in the lymphocyte count (terminal cancer patients [2]; all patients with lymphocyte levels lower than normal range, continuous IVC): 22%
- neutrophil counts, tendency during treatment (terminal cancer patients [2]; most of the patients): normalization of the neutrophil counts
- rate of growth (change) of neutrophil-to-lymphocyte ratio (NLR) (terminal cancer patients [2]; one week before treatment vs during treatment, continuous IVC): tended to decrease the rate of growth of NLR; also recorded: rate of change was decreased
- neutrophil counts (terminal cancer patients [2]; patients for whom neutrophil counts are elevated): reducing neutrophil counts
- lymphocyte and neutrophil counts (terminal cancer patients [2]; patients in whom these numbers are below normal): increase lymphocyte and neutrophil counts
- median improvement in the lymphocyte count (terminal cancer patients [2]; patients with severe lymphopenia who completed treatment, continuous IVC): 69%
- median survival time (terminal cancer patients [3]; participants with initial LDH higher than normal range (LDH>245 U/L)): 95 days
- blood glucose levels during IVC therapy (terminal cancer patients [3]; patients with concentrations higher than normal range): decreased
- patients with LDH rate of growth decreased (terminal cancer patients [3]; [7]): 38 % of patients
- patients with LDH rate of growth increased (terminal cancer patients [3]; [7]): 28.6 % of patients
- patients with LDH rate of growth not changed (terminal cancer patients [3]; [7]): 33.4 % of patients
- median survival time (terminal cancer patients [3]; subjects with normal initial LDH values): 173 days
- Grade 3 adverse events (terminal cancer patients [4]; considered possibly related to the ascorbate therapy): Most of the Grade 3 events involved hypokalemia
- side effects, overall severity (terminal cancer patients [4]; continuous IVC infusion trial): mostly minor
- renal function indicators BUN and creatinine (terminal cancer patients [4]; during therapy): remained relatively stable
- uric acid (terminal cancer patients [4]; during therapy): decreased during therapy
- grade of the most common side effects (terminal cancer patients [4]; in vivo): generally minor (Grade 1)
- dry skin or mouth (terminal cancer patients [4]; of 24 subjects): 7 subjects
- edema (terminal cancer patients [4]; of 24 subjects): 7 subjects
- fatigue (terminal cancer patients [4]; of 24 subjects): 6 subjects
- injector port occlusion (terminal cancer patients [4]; of 24 subjects): 10 subjects
- nausea (terminal cancer patients [4]; of 24 subjects): 11 subjects
- subjects with BUN increases during therapy (terminal cancer patients [4]; of 24 subjects): four
- development of chemo resistance [5, 8]: no signs of the development of chemo resistance
- efficacy of treatment [5, 8]: appeared efficacious
- tolerability [5, 8]: well-tolerated
- tolerability ([5]; pulse press protocol, about six subjects, various cancers): well tolerated
- survival time and quality of life versus patients who had not received IVC (terminal cancer patients [6]): increased survival time and improved quality of life
